Experimental data as given in patent publication US9499511B2, “N-substituted hydroxylamine derivatives with carbon-based leaving groups” (The Johns Hopkins University, priority 2011, dated 2016).
Structures can show the parent of a compound that is named as a salt.

Key:
Format in all cases: physicochemical
[1] = N2O headspace analysis (GC) of HNO production, relative to Angeli's salt; conditions: for HNO / N2O production (in words): decomposition at pH 7.4; for % HNO: donor 0.1 mM, 37° C., PBS pH 7.4, yield relative to Angeli's salt by N2O headspace analysis, SEM ±5%, n = 3
Description: Nitrous oxide is produced via the dimerization and dehydration of HNO, and is the most common marker for HNO production (Fukuto, J. M. et al., Chem. Res. Toxicol. 2005, 18, 790-801).
Gas chromatography was performed on a Varian CP-3800 instrument equipped with a 1041 manual injector, electron capture detector, and a 25 m 5 Å molecular sieve capillary column. Grade 5.0 nitrogen was used as both the carrier (8 mL/min) and the make-up (22 mL/min) gas. The injector oven and the detector oven were kept at 200° C. and 300° C., respectively. All nitrous oxide analyses were performed with the column oven held constant at 150° C. All gas injections were made using a 100 μL gastight syringe with a sample-lock. Samples were prepared in 15 mL amber headspace vials with volumes pre-measured for sample uniformity (actual vial volume ranges from 15.19-15.20 mL). Vials were charged with 5 mL of PBS buffer containing DTPA, purged with argon, and sealed with a rubber septum. The vials were equilibrated for at least 10 minutes at 37° C. in a dry block heater. A 10 mM stock solution of Angeli's salt (AS) was prepared in 10 mM sodium hydroxide, and HNO donors 1a-4a, 6a (10 mM) were prepared in acetonitrile or methanol and used immediately after preparation. From these stock solutions, 50 μL was introduced into individual thermally-equilibrated headspace vials using a gastight syringe, yielding final substrate concentrations of 0.1 mM. Substrates were then incubated long enough to ensure complete decomposition and equilibration of N2O with the headspace. The headspace (60 μL) was then sampled and injected five successive times using a gastight syringe with a sample lock. This was repeated for n≧3 vials per donor. The nitrous oxide yield was averaged and reported relative to the standard, Angeli's salt. For chemical trapping of HNO, glutathione (100 μL of 10 mM in PBS) was added prior to HNO donor addition to give a final glutathione concentration of 0.2 mM, and headspace sampling for N2O was analogously performed as stated above.

[2] = Decomposition kinetics monitored by UV-Vis spectroscopy; conditions: PBS, pH 7.4, footnote c not given; pH 7.4, 37° C.; read-out: t1/2
Description: NMR spectra were obtained on a Bruker Avance 400 MHz FT-NMR spectrometer. […] High-resolution mass spectra were obtained on a VG Analytical VG70SE magnetic sector mass spectrometer operating in fast atom bombardment (FAB) mode. […] Phosphate-buffered saline (PBS) solutions (0.1 M) were prepared with 140 mM NaCl and 3 mM KCl, with 100 μM diethylenetriaminepentaacetic acid (DTPA), adjusted to pH 7.4.

[3] = Decomposition monitored by 1H NMR spectroscopy (carbanion yield, kinetics, half-life); conditions: 10% D2O, 0.25M PBS; for half-life: PBS
Source text: […] In each case, the bottom spectrum was collected at the start of the experiment, and the top spectrum after complete decomposition.
NMR spectra were obtained on a Bruker Avance 400 MHz FT-NMR spectrometer. […] High-resolution mass spectra were obtained on a VG Analytical VG70SE magnetic sector mass spectrometer operating in fast atom bombardment (FAB) mode. […]

[4] = pH 7.4, Condition B: pH 7.4, 37° C., no chelator, air (1H NMR)
[5] = pH 7.4, Condition G: pH 7.4, 37° C., 100 μL DTPA, air (1H NMR)

**Q.** What does the source list for CC1(C)OC(=O)C(C)(NO)C(=O)O1 [Compound 1a, 5-(N-hydroxylamine)-5-methyl-Meldrum's acid hydrochloride monohydrate]?
**A.** HNO / N2O production (in words) [1]: only trace amounts of N2O; % HNO [1]: 2%

**Q.** Which results are given for CO/N=C(\C)C1(NO)C(=O)OC(C)(C)OC1=O [Compound 2a, 5-(N-hydroxylamine)-5-(acetyl-O-methoxyoxime)-Meldrum's acid]?
**A.** half-life [2]: 54 s; HNO / N2O production (in words) [1]: enhanced HNO yield; % HNO [1]: 25%

**Q.** Which “HNO / N2O production (in words)” value [1] does the source give for CCC1(NO)C(=O)N(C)C(=O)N(C)C1=O [Compound 3a, 5-(N-hydroxylamine)-5-ethyl-N,N-dimethylbarbituric acid hydrochloride] here?
**A.** produced little HNO

**Q.** What about the “% HNO” value [1] of the same compound?
**A.** 2%

**Q.** Which half-life [3, 4] does the source give for CC1=NN(c2ccccc2)C(=O)C1(C)NO (stereo not shown) [Compound 8a, 4-(N-hydroxylamine)-4-methyl-N-phenyl-5-methyl-pyrazolone] here?
**A.** 16 h

**Q.** What about the half-life ([3]; pH 7.4, Condition C: pH 7.4, 37° C., 100 μL DTPA, BME (20 equiv.), argon (1H NMR)) of the same compound?
**A.** 28 h

**Q.** What about the half-life ([3]; pH 7.4, Condition D: pH 7.4, 37° C., 100 μL DTPA, GSH (2 equiv.), argon (1H NMR)) of the same compound?
**A.** 50 h

**Q.** What about the half-life ([3]; pH 7.4, Condition E: pH 7.4, 37° C., 100 μL DTPA, 12b (1 equiv.), air (1H NMR)) of the same compound?
**A.** 100 h

**Q.** Which “% remains after 48 h” value ([3]; Condition F: pH 7.4, 37° C., no chelator, nitrogen (1H NMR)) does the source give for CC1=NN(C)C(=O)C1(C)NO (stereo not shown) [Compound 9a, 4-(N-hydroxylamine)-4-methyl-N-methyl-5-methyl-pyrazolone] here?
**A.** 84% remains after 48

**Q.** What about the half-life [3, 4] of the same compound?
**A.** 48 h

**Q.** Which half-life [3, 5] does the source give for CC1=NN(c2ccc(Cl)cc2)C(=O)C1(C)NO (stereo not shown) [Compound 10a, 4-(N-hydroxylamine)-4-methyl-N-(4-chlorophenyl)-5-methyl-pyrazolone] here?
**A.** 84 h

**Q.** For CC1=NN(c2ccccc2Cl)C(=O)C1(C)NO (stereo not shown) [Compound 11a, 4-(N-hydroxylamine)-4-methyl-N-(2-chlorophenyl)-5-methyl-pyrazolone], which half-life [3, 5] is on record?
**A.** 120 h

**Q.** With CC1=NNC(=O)C1(C)NO (stereo not shown) [Compound 12a, 4-(N-hydroxylamine)-4-methyl-5-methyl-pyrazolone] as the compound, how does the “% remains after 7 d” value ([3]; Condition G: pH 7.4, 37° C., 100 μL DTPA, air (1H NMR)) read?
**A.** 70% remains after 7 d
